Laboratory results published in US8247211B2, “Glycopeptide antibiotics” (American Cyanamid Company, priority 2001, dated 2012).
Converted amounts (≈) assume the structure as drawn.

Columns and labels:
Assay in all cases: In vitro antibacterial evaluation: minimum inhibitory concentration (MIC), broth dilution method
Assay type in all cases: cell-based
Escherichia coli = details: broth dilution, 18 hours at 35° C.
Staphylococcus sp. = details: broth dilution, 18 hours at 35° C.; for MIC Staphylococcus aureus-SMITH (GC 4543): strain SMITH GC 4543
Method in brief: (§1)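 NCCLS M7-A2 broth dilution with Mueller-Hinton II, testing 64-0.06 μg/mL antibiotic against 5×10^5 CFU/mL inocula. Test strains include recent methicillin-, penicillin- or vancomycin-resistant clinical isolates. MIC is the lowest concentration preventing growth.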

Streptococcus sp. = details: broth dilution, 18 hours at 35° C.
Method in brief: as §1

Enterococcus sp. = details: broth dilution, 18 hours at 35° C.
Method in brief: as §1

[1] = Streptococcus agalactiae (GC 4564)
[2] = Streptococcus pneumoniae (ATCC 6301)
[3] = Streptococcus pneumoniae (GC 1894)
[4] = Streptococcus pneumoniae (GC 4565)
[5] = Streptococcus pyogenes (GC 4563)
[6] = Enterococcus faecalis (GC 4553)

## COc1ccc(Oc2cccc(-c3nc4cc(CC5NC(=O)C(C(C)c6ccccc6)NC(=O)CNC(=O)C(CO)NC(=O)C(C(O)C6CNC(=N)N6C6OC(CO)C(O)C(O)C6O)NC(=O)C(C(O)C6CNC(=N)N6)NC5=O)ccc4o3)c2)cc1 (stereo not shown) [Example 35]
Escherichia coli
  MIC Escherichia coli (GC 4560): 16 µg/mL (≈ 13.4 µM)
Staphylococcus sp.
  MIC Coagulase Negative Staphylococcus (GC 4547): 8 µg/mL (≈ 6.7 µM)
  MIC Coagulase Negative Staphylococcus (GC 4548): 8 µg/mL (≈ 6.7 µM)
  MIC Coagulase Negative Staphylococcus (GC 4549): 8 µg/mL (≈ 6.7 µM)
  MIC Coagulase Negative Staphylococcus (GC 4551): 8 µg/mL (≈ 6.7 µM)
  MIC Coagulase Negative Staphylococcus (GC 6257): 2 µg/mL (≈ 1.67 µM)
  MIC Staphylococcus aureus SMITH (GC 4543): 8 µg/mL (≈ 6.7 µM)
  MIC Staphylococcus haemolyticus (GC 4546): 8 µg/mL (≈ 6.7 µM)
  MIC Staphylococcus aureus-SMITH (GC 4543): 8 µg/mL (≈ 6.7 µM)
Streptococcus sp.; [1]
  MIC Streptococcus agalactiae (GC 4564): 8 µg/mL (≈ 6.7 µM)
Streptococcus sp.; [2]
  MIC Streptococcus pneumoniae (ATCC 6301): 8 µg/mL (≈ 6.7 µM)
Streptococcus sp.; [3]
  MIC Streptococcus pneumoniae (GC 1894): 8 µg/mL (≈ 6.7 µM)
Streptococcus sp.; [4]
  MIC Streptococcus pneumoniae (GC 4565): 16 µg/mL (≈ 13.4 µM)
Streptococcus sp.; [5]
  MIC Streptococcus pyogenes (GC 4563): 2 µg/mL (≈ 1.67 µM)
Streptococcus sp.
  MIC Streptococcus agalactiae (GC 4564): 8 µg/mL (≈ 6.7 µM)
  MIC Streptococcus pneumoniae (ATCC 6301): 8 µg/mL (≈ 6.7 µM)
  MIC Streptococcus pneumoniae (GC 1894): 8 µg/mL (≈ 6.7 µM)
  MIC Streptococcus pneumoniae (GC 4565): 16 µg/mL (≈ 13.4 µM)
  MIC Streptococcus pyogenes (GC 4563): 2 µg/mL (≈ 1.67 µM)
Enterococcus sp.; Enterococcus avium (GC 4558)
  MIC Enterococcus avium (GC 4558): 8 µg/mL (≈ 6.7 µM)
Enterococcus sp.; Enterococcus faecalis (ATCC 29212)
  MIC Enterococcus faecalis (ATCC 29212): 16 µg/mL (≈ 13.4 µM)
Enterococcus sp.; Enterococcus faecalis (GC 2242)
  MIC Enterococcus faecalis (GC 2242): 16 µg/mL (≈ 13.4 µM)
Enterococcus sp.; Enterococcus faecalis (GC 2691)
  MIC Enterococcus faecalis (GC 2691): 16 µg/mL (≈ 13.4 µM)
Enterococcus sp.; Enterococcus faecalis (GC 3059)
  MIC Enterococcus faecalis (GC 3059): 32 µg/mL (≈ 26.8 µM)
Enterococcus sp.; Enterococcus faecalis (GC 4552)
  MIC Enterococcus faecalis (GC 4552): 32 µg/mL (≈ 26.8 µM)
Enterococcus sp.; [6]
  MIC Enterococcus faecalis (GC 4553): 8 µg/mL (≈ 6.7 µM)
Enterococcus sp.; Enterococcus faecalis (GC 4554)
  MIC Enterococcus faecalis (GC 4554): 32 µg/mL (≈ 26.8 µM)
Enterococcus sp.; Enterococcus faecalis (GC 6189)
  MIC Enterococcus faecalis (GC 6189): 16 µg/mL (≈ 13.4 µM)
Enterococcus sp.; Enterococcus faecium (GC 2243)
  MIC Enterococcus faecium (GC 2243): 8 µg/mL (≈ 6.7 µM)
Enterococcus sp.; Enterococcus faecium (GC 4556)
  MIC Enterococcus faecium (GC 4556): 32 µg/mL (≈ 26.8 µM)
Enterococcus sp.; Enterococcus faecium (GC 4557)
  MIC Enterococcus faecium (GC 4557): 4 µg/mL (≈ 3.35 µM)
Enterococcus sp.
  MIC Enterococcus avium (GC 4558): 8 µg/mL (≈ 6.7 µM)
  MIC Enterococcus faecalis (ATCC 29212): 16 µg/mL (≈ 13.4 µM)
  MIC Enterococcus faecalis (GC 2242): 16 µg/mL (≈ 13.4 µM)
  MIC Enterococcus faecalis (GC 2691): 16 µg/mL (≈ 13.4 µM)
  MIC Enterococcus faecalis (GC 3059): 32 µg/mL (≈ 26.8 µM)
  MIC Enterococcus faecalis (GC 4552): 32 µg/mL (≈ 26.8 µM)
  MIC Enterococcus faecalis (GC 4553): 8 µg/mL (≈ 6.7 µM)
  MIC Enterococcus faecalis (GC 4554): 32 µg/mL (≈ 26.8 µM)
  MIC Enterococcus faecalis (GC 6189): 16 µg/mL (≈ 13.4 µM)
  MIC Enterococcus faecium (GC 2243): 8 µg/mL (≈ 6.7 µM)
  MIC Enterococcus faecium (GC 4556): 32 µg/mL (≈ 26.8 µM)
  MIC Enterococcus faecium (GC 4557): 4 µg/mL (≈ 3.35 µM)

## CC(c1ccccc1)C1NC(=O)CNC(=O)C(CO)NC(=O)C(C(O)C2CNC(=N)N2C2OC(CO)C(O)C(O)C2O)NC(=O)C(C(O)C2CNC(=N)N2)NC(=O)C(Cc2ccc3oc(-c4ccoc4)nc3c2)NC1=O (stereo not drawn) [Example 38, Cyclo[3-[2-(3-furyl)-1,3-benzoxazol-5-yl]alanyl-3-(2-iminoimidazolidin-4-yl)seryl-3-(3-hexopyranosyl-2-iminoimidazolidin-4-yl)serylserylglycyl-β-methylphenylalanyl]]
Escherichia coli
  MIC Escherichia coli (ATCC 25922): 64 µg/mL (≈ 60.3 µM)
  MIC Escherichia coli (GC 4559): 64 µg/mL (≈ 60.3 µM)
  MIC Escherichia coli (GC 4560): 32 µg/mL (≈ 30.1 µM)
Staphylococcus sp.
  MIC Coagulase Negative Staphylococcus (GC 4547): 32 µg/mL (≈ 30.1 µM)
  MIC Coagulase Negative Staphylococcus (GC 4548): 32 µg/mL (≈ 30.1 µM)
  MIC Coagulase Negative Staphylococcus (GC 4549): 64 µg/mL (≈ 60.3 µM)
  MIC Coagulase Negative Staphylococcus (GC 4551): 64 µg/mL (≈ 60.3 µM)
  MIC Coagulase Negative Staphylococcus (GC 6257): 16 µg/mL (≈ 15.1 µM)
  MIC Staphylococcus aureus SMITH (GC 4543): 64 µg/mL (≈ 60.3 µM)
  MIC Staphylococcus haemolyticus (GC 4546): 16 µg/mL (≈ 15.1 µM)
  MIC Staphylococcus aureus-SMITH (GC 4543): 64 µg/mL (≈ 60.3 µM)
Streptococcus sp.; [1]
  MIC Streptococcus agalactiae (GC 4564): 32 µg/mL (≈ 30.1 µM)
Streptococcus sp.; [2]
  MIC Streptococcus pneumoniae (ATCC 6301): 32 µg/mL (≈ 30.1 µM)
Streptococcus sp.; [3]
  MIC Streptococcus pneumoniae (GC 1894): 32 µg/mL (≈ 30.1 µM)
Streptococcus sp.; [4]
  MIC Streptococcus pneumoniae (GC 4565): 64 µg/mL (≈ 60.3 µM)
Streptococcus sp.; [5]
  MIC Streptococcus pyogenes (GC 4563): 32 µg/mL (≈ 30.1 µM)
Streptococcus sp.
  MIC Streptococcus agalactiae (GC 4564): 32 µg/mL (≈ 30.1 µM)
  MIC Streptococcus pneumoniae (ATCC 6301): 32 µg/mL (≈ 30.1 µM)
  MIC Streptococcus pneumoniae (GC 1894): 32 µg/mL (≈ 30.1 µM)
  MIC Streptococcus pneumoniae (GC 4565): 64 µg/mL (≈ 60.3 µM)
  MIC Streptococcus pyogenes (GC 4563): 32 µg/mL (≈ 30.1 µM)
Enterococcus sp.; Enterococcus avium (GC 4558)
  MIC Enterococcus avium (GC 4558): 64 µg/mL (≈ 60.3 µM)
Enterococcus sp.; [6]
  MIC Enterococcus faecalis (GC 4553): 64 µg/mL (≈ 60.3 µM)
Enterococcus sp.; Enterococcus faecium (GC 4557)
  MIC Enterococcus faecium (GC 4557): 32 µg/mL (≈ 30.1 µM)
Enterococcus sp.
  MIC Enterococcus avium (GC 4558): 64 µg/mL (≈ 60.3 µM)
  MIC Enterococcus faecalis (GC 4553): 64 µg/mL (≈ 60.3 µM)
  MIC Enterococcus faecium (GC 4557): 32 µg/mL (≈ 30.1 µM)
